Assay results published in patent US20080221086A1, “Novel Inhibitors of Glutaminyl Cyclase” (PROBIODRUG AG, priority 2006, published 2008).
Where two headings read alike, the source gives them in different places.

Target: hQC (Homo sapiens, UniProt Q16769)
Experiment: Fluorometric assay of glutaminyl cyclase (QC) inhibition, H-Gln-βNA or H-Gln-AMC substrate
Format: biochemical
In short: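 Ki values were obtained by fitting progress curves to a competitive-inhibition equation, and the rapid screen used 4 mM inhibitor with substrate at 1 KM. Both readouts coupled pyroglutamyl aminopeptidase at pH 8.0 and 30° C: H-Gln-βNA at 0.2 mM (ex/em 320/410 nm) or H-Gln-AMC (380/460 nm).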

Chain of hQC (Q16769 29-361): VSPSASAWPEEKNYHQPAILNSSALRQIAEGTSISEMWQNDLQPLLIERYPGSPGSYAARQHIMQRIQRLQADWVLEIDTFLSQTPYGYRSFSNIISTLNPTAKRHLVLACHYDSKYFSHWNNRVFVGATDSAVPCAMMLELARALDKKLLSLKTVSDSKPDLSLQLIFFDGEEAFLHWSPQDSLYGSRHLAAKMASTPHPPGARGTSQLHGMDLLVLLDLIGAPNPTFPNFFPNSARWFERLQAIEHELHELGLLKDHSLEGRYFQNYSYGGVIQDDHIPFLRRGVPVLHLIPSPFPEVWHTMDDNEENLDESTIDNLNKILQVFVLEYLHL

SMILES | IC50 (read-out: IC50) [nM] | IC50 (compound from preparative synthesis, purified by chromatography, fluorescent assay, read-out: IC50 hQC) [nM]
Cc1ccc(C2/C(=N\CCc3c[nH]c4ccccc34)NC(=O)N2c2ccc3[nH]cnc3c2)c(C)c1 (stereo not drawn) [Compound 219, 1-(1H-Benzoimidazol-5-yl)-5-(2,4-dimethyl-phenyl)-4-2-(1H-indol-3-yl)-ethylimino-imidazolidin-2-one] | 4 | 
O=C1N/C(=N\C2CCCCC2)C(c2c(F)ccc(Cl)c2F)N1c1ccc2[nH]cnc2c1 (stereo not drawn) [Compound 220, 1-(1H-Benzoimidazol-5-yl)-5-(3-chloro-2,6-difluoro-phenyl)-4-(cyclohexylimino)-imidazolidin-2-one] | 4 | 98.4
O=C(CN=C1NC(=O)N(c2ccc3[nH]cnc3c2)C1c1ccc2[nH]ccc2c1)N1CCC(O)C1 (stereo not drawn) [Compound 222, 1-(1H-Benzoimidazol-5-yl)-4-2-(3-hydroxy-pyrrolidin-1-yl)-2-oxo-ethylimino-5-(1H-indol-5-yl)-imidazolidin-2-one] | 1300 | 
C/N=C1/NC(=O)N(c2ccc3[nH]cnc3c2)C1c1c[nH]c2ccc(Cl)cc12 (stereo not drawn) [Compound 223, 1-(1H-Benzoimidazol-5-yl)-5-(5-chloro-1H-indol-3-yl)-4-methylimino-imidazolidin-2-one] | 400 | 
COc1ccc(C2C(=NCC(=O)N3CCSCC3)NC(=S)N2c2ccc3[nH]cnc3c2)c(F)c1 (stereo not drawn) [Compound 225, 2-(1-(1H-Benzo[d]imidazol-5-yl)-5-(2-fluoro-4-methoxyphenyl)-2-thioxoimidazolidin-4-ylideneamino)-1-thiomorpholinoethanone] | 6700 | 
O=C1N/C(=N/Cc2cccnc2)C(c2cc(F)cc(F)c2)N1c1ccc2[nH]cnc2c1 (stereo not drawn) [Compound 227, 1-(1H-Benzoimidazol-5-yl)-5-(3,5-difluoro-phenyl)-4-pyridin-3-ylmethylimino-imidazolidin-2-one] | 1300 | 
O=C1N/C(=N\C2CCCc3ccccc32)C(c2c(F)ccc(Cl)c2F)N1c1ccc2nc[nH]c2c1 (stereo not drawn) [Compound 228, 1-(3H-Benzoimidazol-5-yl)-5-(3-chloro-2,6-difluoro-phenyl)-4-1,2,3,4-tetrahydro-naphthalen-1-ylimino-imidazolidin-2-one] | 4 | 
O=C1N/C(=N/CCCc2ccccc2)C(c2c[nH]c3cc(F)ccc23)N1c1ccc2[nH]cnc2c1 (stereo not drawn) [Compound 232, 1-(1H-Benzoimidazol-5-yl)-5-(6-fluoro-1H-indol-3-yl)-4-3-phenyl-propylimino-imidazolidin-2-one] | 2200 | 
COC(=O)C(C)/N=C1\NC(=O)N(c2ccc3[nH]cnc3c2)C1c1ccccc1 (stereo not drawn) [Compound 234, Methyl 2-(1-(1H-benzo[d]imidazol-5-yl)-2-oxo-5-phenylimidazolidin-4-ylideneamino)propanoate] | 7600 | 
O=C1N/C(=N\C2CCCc3ccccc32)C(c2cc(Br)cs2)N1c1ccc2nc[nH]c2c1 (stereo not drawn) [Compound 236, 1-(3H-Benzoimidazol-5-yl)-5-(4-bromo-thiophen-2-yl)-4-1,2,3,4-tetrahydro-naphthalen-1-ylimino-imidazolidin-2-one] | 2200 | 
Cc1ccc(C2/C(=N/c3c(Cl)cccc3Cl)NC(=S)N2c2ccc3nc[nH]c3c2)cc1 (stereo not drawn) [Compound 237, 1-(3H-Benzoimidazol-5-yl)-4-2,6-dichloro-phenylimino-5-p-tolyl-imidazolidine-2-thione] | 7600 | 
O=C1N/C(=N\C2CCCCC2O)C(c2ccc3nsnc3c2)N1c1ccc2[nH]cnc2c1 (stereo not drawn) [Compound 238] | 4 | 
Cc1ccc2occ(C3/C(=N/CCCc4ccccc4)NC(=O)N3c3ccc4[nH]cnc4c3)c(=O)c2c1 (stereo not drawn) [Compound 239, 1-(1H-Benzoimidazol-5-yl)-5-(6-methyl-4-oxo-4H-chromen-3-yl)-4-(3-phenyl-propylimino)-imidazolidin-2-one] | 400 | 
S=C1N/C(=N\C(Cc2ccccc2)c2ccccc2)C(C2=CCCCC2)N1c1ccc2[nH]cnc2c1 (stereo not drawn) [Compound 240, 1-(1H-Benzoimidazol-5-yl)-5-cyclohex-1-enyl-4-1,2-diphenyl-ethylimino-imidazolidine-2-thione] | 8500 | 
O=C1CCCN1CCC/N=C1/NC(=O)N(c2ccc3[nH]cnc3c2)C1c1cccc(Br)c1 (stereo not drawn) [Compound 241, 1-(1H-Benzoimidazol-5-yl)-5-(3-bromo-phenyl)-4-3-(2-oxo-pyrrolidin-1-yl)-propylimino-imidazolidin-2-one] | 4 | 
CC1=CC(C)C(C2/C(=N/CC(=O)N3CCCN(C)CC3)NC(=O)N2c2ccc3[nH]cnc3c2)CC1 (stereo not drawn) [Compound 243, 1-(1H-Benzoimidazol-5-yl)-5-(2,4-dimethyl-cyclohex-3-enyl)-4-2-(4-methyl-1,4diazepan-1-yl)-2-oxo-ethylimino-imidazolidin-2-one] | 5800 | 
O=C1N/C(=N\C2CCCC2)C(c2cc(F)cc(F)c2)N1c1ccc2[nH]cnc2c1 (stereo not drawn) [Compound 244, 1-(1H-Benzoimidazol-5-yl)-4-cyclopentylimino-5-(3,5-difluoro-phenyl)-imidazolidin-2-one] | 400 | 
CCc1ccccc1/N=C1\NC(=O)N(c2ccc3[nH]cnc3c2)C1c1ccccc1 (stereo not drawn) [Compound 245, 1-(1H-Benzoimidazol-5-yl)-4-2-ethyl-phenylimino-5-phenyl-imidazolidin-2-one] | 7600 | 
O=C1N/C(=N\C2CCCC2)C(c2coc3ccccc3c2=O)N1c1ccc2[nH]cnc2c1 (stereo not drawn) [Compound 246, 1-(1H-Benzoimidazol-5-yl)-4-cyclopentylimino-5-(4-oxo-4H-chromen-3-yl)-imidazolidin-2-one] | 7600 | 
O=C(C/N=C1/NC(=O)N(c2ccc3nc[nH]c3c2)C1c1ccc2[nH]ccc2c1)N1CCC(O)CC1 (stereo not drawn) [Compound 248, 1-(3H-Benzoimidazol-5-yl)-4-2-(4-hydroxy-piperidin-1-yl)-2-oxo-ethylimino-5-(1H-indol-5-yl)-imidazolidin-2-one] | 400 | 
COC(=O)C(C)/N=C1\NC(=S)N(c2ccc3[nH]cnc3c2)C1c1ccc(C)cc1 (stereo not drawn) [Compound 249, Methyl 2-(1-(1H-benzo[d]imidazol-5-yl)-2-thioxo-5-p-tolylimidazolidin-4-ylideneamino)propanoate] | 5800 | 
O=C(C/N=C1\NC(=O)N(c2ccc3nc[nH]c3c2)C1c1c(F)ccc(Cl)c1F)N1CCCCC1 (stereo not drawn) [Compound 250, 1-(3H-Benzoimidazol-5-yl)-5-(3-chloro-2,6-difluoro-phenyl)-4-2-oxo-2-piperidin-1-yl-ethylimino-imidazolidin-2-one] | 4900 | 

Further lines, results first:

IC50 (read-out: IC50) [nM] | IC50 (compound from preparative synthesis, purified by chromatography, fluorescent assay, read-out: IC50 hQC) [nM] | SMILES
400 |  | S=C1N/C(=N/Cn2nnc3ccccc32)C(c2ccc3c(c2)OCCO3)N1c1ccc2[nH]cnc2c1 (stereo not drawn) [Compound 217, 1-(1H-Benzoimidazol-5-yl)-4-benzotriazol-1-ylmethylimino-5-(2,3-dihydro-benzo1,4dioxin-6-yl)-imidazolidine-2-thione]
4 |  | O=C1N/C(=N\C2CCc3ccccc32)C(c2ccc3[nH]ccc3c2)N1c1ccc2[nH]cnc2c1 (stereo not drawn) [Compound 218, 1-(1H-Benzoimidazol-5-yl)-4-indan-1-ylimino-5-(1H-indol-5-yl)-imidazolidin-2-one]
6700 |  | O=C1N/C(=N/Cc2cccnc2)C(c2ccc3ccccc3c2)N1c1ccc2[nH]cnc2c1 (stereo not drawn) [Compound 221, 1-(1H-Benzoimidazol-5-yl)-5-naphthalen-2-yl-4-pyridin-3-ylmethylimino-imidazolidin-2-one]
4 |  | O=C1N/C(=N/CCCc2ccccc2)C(c2ccc3[nH]ccc3c2)N1c1ccc2[nH]cnc2c1 (stereo not drawn) [Compound 224, 1-(1H-Benzoimidazol-5-yl)-5-(1H-indol-5-yl)-4-3-phenyl-propylimino-imidazolidin-2-one]
8500 |  | OC(CN=C1NC(=S)N(c2ccc3[nH]cnc3c2)C1c1cc(F)cc(F)c1)c1ccccc1 (stereo not drawn) [Compound 229, 1-(1H-Benzoimidazol-5-yl)-5-(3,5-difluoro-phenyl)-4-2-hydroxy-2-phenyl-ethylimino-imidazolidine-2-thione]
4 |  | Cc1ccc2c(C3/C(=N\Cc4ccccc4)NC(=O)N3c3ccc4[nH]cnc4c3)c[nH]c2c1 (stereo not drawn) [Compound 230, 1-(1H-Benzoimidazol-5-yl)-4-benzylimino-5-(6-methyl-1H-indol-3-yl)-imidazolidin-2-one]
4000 |  | O=C1CCCN1CCCN=C1NC(=S)N(c2ccc3[nH]cnc3c2)C1c1ccc2nsnc2c1 (stereo not drawn) [Compound 231, 1-{3-1-(1H-Benzoimidazol-5-yl)-5-benzo[c][1,2,5]thiadiazol-5-yl-2-thioxo-imidazolidin-(4Z)-ylideneamino-propyl}-pyrrolidin-2-one]
2200 |  | O=C1N/C(=N/CCN2CCOCC2)C(c2ccc3ccccc3c2)N1c1ccc2[nH]cnc2c1 (stereo not drawn) [Compound 233, 1-(1H-Benzoimidazol-5-yl)-4-2-morpholin-4-yl-ethylimino-5-naphthalen-2-yl-imidazolidin-2-one]
4 |  | O=C1N/C(=N\c2ccc3c(c2)OCCO3)C(c2ccc3c(c2)OCCO3)N1c1ccc2[nH]cnc2c1 (stereo not drawn) [Compound 235, 1-(1H-Benzoimidazol-5-yl)-5-(2,3-dihydro-benzo1,4dioxin-6-yl)-4-2,3-dihydro-benzo1,4dioxin-6-ylimino-imidazolidin-2-one]
4 |  | CN(C)c1ccc(C2/C(=N/C3CCc4ccccc43)NC(=O)N2c2ccc3[nH]cnc3c2)cc1 (stereo not drawn) [Compound 242, 1-(1H-Benzoimidazol-5-yl)-5-(4-dimethylamino-phenyl)-4-indan-1-ylimino-imidazolidin-2-one]
3100 |  | O=C1CCCN1CCC/N=C1\NC(=O)N(c2ccc3[nH]cnc3c2)C1c1ccnc2ccccc12 (stereo not drawn) [Compound 247, 1-(1H-Benzoimidazol-5-yl)-4-3-(2-oxo-pyrrolidin-1-yl)-propylimino-5-quinolin-4-yl-imidazolidin-2-one]
4000 |  | S=C1N/C(=N/Cc2ccccc2)C(c2ccc(Cl)cc2)N1c1ccc2[nH]cnc2c1 (stereo not drawn) [Compound 251, 1-(1H-Benzoimidazol-5-yl)-4-benzylimino-5-(4-chloro-phenyl)-imidazolidine-2-thione]
7600 |  | O=C1CCCN1CCC/N=C1\NC(=S)N(c2ccc3[nH]cnc3c2)C1c1cc2ccccc2s1 (stereo not drawn) [Compound 252, 1-(3-(5-(benzo[b]thiophen-2-yl)-1-(1H-benzo[d]imidazol-5-yl)-2-thioxoimidazolidin-4-ylideneamino)propyl)pyrrolidin-2-one]
